Where two headings read alike, the source gives them in different places.
Assays:
DKD patients [1] = experiment: SONAR study, six week enrichment period, analyses by concomitant SGLT-2 inhibitor use; format: in vivo, human; parameters: key to UACR Final, Median / UACR Change, Median: UACR values in mg/g; settings: for B-type Natriuretic Peptide, change: geometric mean; for UACR Change, Mean (SD) / UACR Change, Median / UACR Final, Mean (SD) / UACR Final, Median: enrichment atrasentan
Method: A double-blind, randomized, placebo-controlled trial of DKD patients was conducted at 689 sites in 41 countries. The trial was conducted in two phases, an enrichment period and a double-blind treatment period. For the enrichment period, eligible patients were 18-85 years old with type 2 diabetes, an estimated glomerular filtration rate (eGFR) of 25-75 mL/min per 1.73 m^2 of body surface area, a urine albumin-to-creatinine ratio (UACR) of 300-5000 mg/g, a serum albumin of at least 25 g/L, a brain natriuretic peptide (BNP) concentration (level) of no more than 200 pg/mL, a serum potassium of at least 3 to 5 mmol/L, and systolic blood pressure of 110-180 mm Hg. The patients were required to receive a stable, recommended or maximally tolerated dose of an ACE inhibitor or ARB for at least four weeks prior to beginning the enrichment period. Patients also received a diuretic prior to beginning the enrichment period. Exclusion criteria included: a diagnosis of or previous hospital admission for heart failure, a history of severe peripheral or facial edema, diagnosis of type 1 diabetes, history of pulmonary hypertension, pulmonary fibrosis, or any lung diseases requiring oxygen therapy, and known non-diabetic kidney disease. See Heerspink et al., Lancet 393:1937-1947 (2019).
See Heerspink et al., Diabetes Obes Metab., 20:1829-1835 (2018). 42 responder patients and 9 patients in the non-responder group had used a SGLT-2 inhibitor at the start of enrichment. […] It was concluded that the UACR reduction was consistent in both groups.
Referring to the following Table 1, case-control matched cohort data from the study is shown.
SGLT-2 inhibitors included canagliflozin (N=6), empagliflozin (N=4), dapagliflozin (N=3), and luseogliflozin (N=1).
Change in body weight was used as a surrogate for fluid retention. See, e.g., Hoekman, et al., Clin. J. Am. Soc. Nephrol. 2013; 9(3):490-498. The change in BNP was monitored as an additional surrogate for fluid retention (each 1 kg increase in body weight during the enrichment period was associated with a 7.3% increase in BNP (p-value<0.001)).

DKD patients [2] = settings: enrichment period, cited from earlier work
DKD patients [3] = settings: cited from earlier work
[4] = Table 2, case-control matched cohort (N = 14 vs N = 42), enrichment period
[5] = Table 5, combination matched cohort (N = 14 vs N = 42), enrichment period
[6] = Table 6, combination (N = 14) vs all atrasentan alone subjects (N = 5093), enrichment period
[7] = No prior or concomitant SGLT2, N 4768
[8] = Prior and concomitant sGLT2, N 5
[9] = atrasentan group, treatment period
[10] = of 1,325 patients, atrasentan 0.75 mg orally daily
[11] = of 1,325 responders, atrasentan 0.75 mg orally daily, median follow-up 2.2 years

With `CCCCN(CCCC)C(=O)CN1C[C@H](c2ccc3c(c2)OCO3)[C@@H](C(=O)O)[C@@H]1c1ccc(OC)cc1` [Atrasentan, (2R,3R,4S)-4-(1,3-benzodioxol-5-yl)-1-[2-(dibutylamino)-2-oxoethyl]-2-(4-methoxyphenyl)pyrrolidine-3-carboxylic acid] the “Change in B-type Natriuretic Peptide (fluid retention)” value (DKD patients [1]; [4]) was 6.9%, the “Change in Systolic Blood Pressure (renal efficacy)” value (DKD patients [1]; [4]) was −9.2 mmHg and the “Change in body weight (fluid retention)” value (DKD patients [1]; [4]) was 1.1 kg. The “Change in eGFR (renal efficacy)” value (DKD patients [1]; [4]) was −0.6 ml/min/1.73 m^2, the “Change in hematocrit (fluid retention)” value (DKD patients [1]; [4]) was −2.5% and the “Change in hemoglobin (fluid retention)” value (DKD patients [1]; [4]) was -0.9 g/dL. For the same compound, the “Body weight, change” value (DKD patients [1]; [5]) was 0.6 kg, the “Systolic Blood Pressure, change” value (DKD patients [1]; [5]) was −6.7 mmHg and the “eGFR, change” value (DKD patients [1]; [5]) was −2.1 ml/min/1.73 m^2. The “B-type Natriuretic Peptide, change” value (DKD patients [1]; [5]) was 5.1%, the “Body weight, change” value (DKD patients [1]; [6]) was 0.6 kg and the “Systolic Blood Pressure, change” value (DKD patients [1]; [6]) was −4.7 mmHg. For the same compound, the “eGFR, change” value (DKD patients [1]; [6]) was −1.0 ml/min/1.73 m^2, the “B-type Natriuretic Peptide, change” value (DKD patients [1]; [6]) was 8.3% and the “body weight increased by” value (DKD patients [1]; after six weeks, matched cohort, atrasentan alone) was 0.6 kg. For the same compound, the “UACR Change, Mean (SD)” value (DKD patients [1]; Concomitant sGLT2 only, N 64) was −469.92 (680.739), the “UACR Change, Median” value (DKD patients [1]; Concomitant sGLT2 only, N 64) was −311.00 and the “UACR Final, Mean (SD)” value (DKD patients [1]; Concomitant sGLT2 only, N 64) was 809.47 (956.422). For the same compound, the “UACR Final, Median” value (DKD patients [1]; Concomitant sGLT2 only, N 64) was 437.50, the “UACR Change, Mean (SD)” value (DKD patients [1]; [7]) was −365.00 (1213.365) and the “UACR Change, Median” value (DKD patients [1]; [7]) was −257.00. For the same compound, the “UACR Final, Mean (SD)” value (DKD patients [1]; [7]) was 891.95 (1352.518), the “UACR Final, Median” value (DKD patients [1]; [7]) was 540.16 and the “UACR Change, Mean (SD)” value (DKD patients [1]; Prior SGLT2 only, N 6) was −97.80 (194.266). The “UACR Change, Median” value (DKD patients [1]; Prior SGLT2 only, N 6) was −101.00, the “UACR Final, Mean (SD)” value (DKD patients [1]; Prior SGLT2 only, N 6) was 1457.19 (1448.751) and the “UACR Final, Median” value (DKD patients [1]; Prior SGLT2 only, N 6) was 939.56. The “UACR Change, Mean (SD)” value (DKD patients [1]; [8]) was −109.71 (366.699), the “UACR Change, Median” value (DKD patients [1]; [8]) was −261.00 and the “UACR Final, Mean (SD)” value (DKD patients [1]; [8]) was 379.37 (556.751). For the same compound, the “UACR Final, Median” value (DKD patients [1]; [8]) was 136.00, the “change in UACR from baseline” value (DKD patients [2]; non-responders, with concomitant SGLT-2 inhibitor use) was “+10.4%” and the “change in UACR from baseline” value (DKD patients [2]; non-responders, without concomitant SGLT-2 inhibitor use) was −1.3%. The “change in UACR from baseline” value (DKD patients [2]; responders, with concomitant SGLT-2 inhibitor use) was −53.2%, the “change in UACR from baseline” value (DKD patients [2]; responders, without concomitant SGLT-2 inhibitor use) was −48.8% and the “fluid retention and anemia adverse events” value (DKD patients [3]; atrasentan group compared with placebo group) was “more frequent”. For the same compound, the “patients who died, number” value (DKD patients [3]; [9]) was 58 patients, the “patients who died, percent” value (DKD patients [3]; [9]) was 4.4% and the “hospital admission for heart failure, number of patients” value (DKD patients [3]; [10]) was 47 patients. For the same compound, the “hospital admission for heart failure, percent of patients” value (DKD patients [3]; [10]) was 3.5%, the “patients with a primary composite renal endpoint event (doubling of serum creatinine or ESRD), number” value (DKD patients [3]; [11]) was 79 patients and the “patients with a primary composite renal endpoint event (doubling of serum creatinine or ESRD), percent” value (DKD patients [3]; [11]) was 6.0%.

Source: patent US20230270718A1, “METHODS OF TREATING DIABETIC KIDNEY DISEASE” (Chinook Therapeutics, Inc., priority 2020, published 2023)
